The record followed here is ChEMBL document CHEMBL5108056, “Discovery of Isoform-Selective Akt3 Degraders Overcoming Osimertinib-Induced Resistance in Non-Small Cell Lung Cancer Cells” (J Med Chem, 2022).

T2 sequence (Q9Y243 whole entry): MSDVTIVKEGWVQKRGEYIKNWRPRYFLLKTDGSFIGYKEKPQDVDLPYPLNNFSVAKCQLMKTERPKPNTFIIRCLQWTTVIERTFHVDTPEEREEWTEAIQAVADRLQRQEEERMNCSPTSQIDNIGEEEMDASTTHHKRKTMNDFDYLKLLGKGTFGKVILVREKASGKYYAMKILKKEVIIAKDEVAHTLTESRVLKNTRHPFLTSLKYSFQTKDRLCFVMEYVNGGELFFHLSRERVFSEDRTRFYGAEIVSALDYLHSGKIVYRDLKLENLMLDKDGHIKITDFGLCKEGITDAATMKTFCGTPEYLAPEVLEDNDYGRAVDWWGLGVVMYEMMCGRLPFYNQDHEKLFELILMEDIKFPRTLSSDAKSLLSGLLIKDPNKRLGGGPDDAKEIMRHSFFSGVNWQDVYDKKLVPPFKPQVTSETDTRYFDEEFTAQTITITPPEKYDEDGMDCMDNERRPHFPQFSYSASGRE
T1 sequence (P31749 whole entry): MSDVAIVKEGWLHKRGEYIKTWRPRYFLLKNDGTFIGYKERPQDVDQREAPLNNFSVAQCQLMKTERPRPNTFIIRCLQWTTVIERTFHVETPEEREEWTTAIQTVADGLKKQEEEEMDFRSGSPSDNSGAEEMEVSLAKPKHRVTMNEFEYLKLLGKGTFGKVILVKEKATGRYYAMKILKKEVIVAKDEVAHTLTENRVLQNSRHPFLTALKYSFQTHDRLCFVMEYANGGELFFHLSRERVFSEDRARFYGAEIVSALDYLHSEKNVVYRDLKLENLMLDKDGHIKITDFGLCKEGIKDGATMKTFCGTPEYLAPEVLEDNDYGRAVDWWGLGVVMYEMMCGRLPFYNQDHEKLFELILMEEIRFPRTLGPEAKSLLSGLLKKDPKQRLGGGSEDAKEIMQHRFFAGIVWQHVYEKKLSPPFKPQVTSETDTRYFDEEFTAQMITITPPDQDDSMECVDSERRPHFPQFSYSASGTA

The first experiment has as its target T1, RAC-alpha serine/threonine-protein kinase (Homo sapiens, UniProt P31749). Description: Induction of AKT1 degradation in human NCI-H1975 cells assessed as reduction in AKT1 protein level incubated for 24 hrs under serum free medium by Western blot analysis. It counts as cell-based.
Conditions: not given
A general note: In western blotting, separated proteins are transferred to a membrane and probed.
As usually defined, the EC50 is the concentration that produces a half-maximal response. For `C=CC(=O)Nc1cccc(-n2c(=O)cc(C)c3cnc(Nc4ccc(N5CCN(C(=O)CCCCCCCCCCCNC(=O)CC67CC8CC(CC(C8)C6)C7)CC5)cc4OC)nc32)c1`, the EC50 was more than 1000 nM.
As for `C=CC(=O)Nc1cccc(-n2c(=O)cc(C)c3cnc(Nc4ccc(N5CCN(CCCCCCNC(=O)CC67CC8CC(CC(C8)C6)C7)CC5)cc4OC)nc32)c1`, the EC50 was more than 1000 nM.
Take `COc1cc(N2CCN(CCCCCCCCCCCCNC(=O)CC34CC5CC(CC(C5)C3)C4)CC2)ccc1Nc1ncc2c(C)cc(=O)n(-c3cccc(NC(C)=O)c3)c2n1`: the EC50 is more than 1000 nM.
The same measure, in the same setting: in the case of `CCC(=O)Nc1cccc(-n2c(=O)cc(C)c3cnc(Nc4ccc(N5CCN(CCCCCCCCCCCCNC(=O)CC67CC8CC(CC(C8)C6)C7)CC5)cc4OC)nc32)c1` it was more than 1000 nM; in that of `COc1cc(N2CCN(CCCCCCCCCCCCNC(=O)CC34CC5CC(CC(C5)C3)C4)CC2)ccc1Nc1ncc2c(C)cc(=O)n(-c3ccc(NC(=O)C4CC4)cc3)c2n1`, more than 1000 nM.
With `COc1cc(N2CCN(CCCCCCCCCCCCNC(=O)CC34CC5CC(CC(C5)C3)C4)CC2)ccc1Nc1ncc2c(C)cc(=O)n(-c3cccc(N)c3)c2n1`, the EC50 is more than 1000 nM.
Still for that read-out and setting: in the case of `C=CC(=O)Nc1ccc(-n2c(=O)cc(C)c3cnc(Nc4ccc(N5CCN(CCCCCCCCCCCCNC(=O)CC67CC8CC(CC(C8)C6)C7)CC5)cc4OC)nc32)cc1` it was more than 1000 nM; in that of `C=CC(=O)Nc1cccc(-n2c(=O)cc(C)c3cnc(Nc4ccc(N5CCN(C)CC5)cc4OC)nc32)c1`, more than 1000 nM.
Turning to `C=CC(=O)Nc1cccc(-n2c(=O)cc(C)c3cnc(Nc4ccc(N5CCN(CCCCCCCCCCCCCCNC(=O)CC67CC8CC(CC(C8)C6)C7)CC5)cc4OC)nc32)c1`, the EC50 is more than 1000 nM.
Still for that read-out and setting: next, `COc1cc(N2CCN(CCCCCCCCCCCCNC(=O)CC34CC5CC(CC(C5)C3)C4)CC2)ccc1Nc1ncc2c(C)cc(=O)n(-c3cccc(NC(=O)C(C)(C)C)c3)c2n1`: more than 1000 nM; `C=CC(=O)Nc1cccc(-n2c(=O)cc(C)c3cnc(Nc4ccc(N5CCN(CCCCCCCCCCNC(=O)CC67CC8CC(CC(C8)C6)C7)CC5)cc4OC)nc32)c1`: more than 1000 nM.
Still for that read-out and setting: in the case of `C=CC(=O)Nc1cccc(-n2c(=O)cc(C)c3cnc(Nc4ccc(N5CCN(CCOCCOCCNC(=O)CC67CC8CC(CC(C8)C6)C7)CC5)cc4OC)nc32)c1` it was 300 nM.

For the next experiment, the target named is RAC-beta serine/threonine-protein kinase (Homo sapiens, UniProt P31751). Kind of experiment: Induction of AKT2 degradation in human NCI-H1975 cells assessed as reduction in AKT2 protein level incubated for 24 hrs under serum free medium by Western blot analysis. It counts as cell-based.
RAC-beta serine/threonine-protein kinase, sequence (P31751 whole entry): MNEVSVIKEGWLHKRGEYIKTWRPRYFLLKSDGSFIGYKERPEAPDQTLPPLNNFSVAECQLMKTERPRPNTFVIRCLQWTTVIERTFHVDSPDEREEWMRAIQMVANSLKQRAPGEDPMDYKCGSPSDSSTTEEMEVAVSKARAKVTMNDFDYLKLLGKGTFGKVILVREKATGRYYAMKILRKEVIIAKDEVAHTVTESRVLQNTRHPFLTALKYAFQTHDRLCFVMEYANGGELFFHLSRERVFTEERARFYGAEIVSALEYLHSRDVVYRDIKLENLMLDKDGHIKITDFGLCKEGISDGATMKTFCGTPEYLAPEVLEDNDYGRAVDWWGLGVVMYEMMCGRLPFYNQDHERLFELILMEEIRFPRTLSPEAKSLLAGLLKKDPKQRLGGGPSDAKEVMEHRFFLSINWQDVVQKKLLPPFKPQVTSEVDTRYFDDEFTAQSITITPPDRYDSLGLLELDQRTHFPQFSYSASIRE
Conditions: not given
`C=CC(=O)Nc1cccc(-n2c(=O)cc(C)c3cnc(Nc4ccc(N5CCN(C(=O)CCCCCCCCCCCNC(=O)CC67CC8CC(CC(C8)C6)C7)CC5)cc4OC)nc32)c1`: the EC50 is more than 1000 nM.
For the compound `C=CC(=O)Nc1cccc(-n2c(=O)cc(C)c3cnc(Nc4ccc(N5CCN(CCCCCCNC(=O)CC67CC8CC(CC(C8)C6)C7)CC5)cc4OC)nc32)c1`, the EC50 is more than 1000 nM.
As to `COc1cc(N2CCN(CCCCCCCCCCCCNC(=O)CC34CC5CC(CC(C5)C3)C4)CC2)ccc1Nc1ncc2c(C)cc(=O)n(-c3cccc(NC(C)=O)c3)c2n1`, the EC50 is more than 1000 nM.
With `CCC(=O)Nc1cccc(-n2c(=O)cc(C)c3cnc(Nc4ccc(N5CCN(CCCCCCCCCCCCNC(=O)CC67CC8CC(CC(C8)C6)C7)CC5)cc4OC)nc32)c1`, the EC50 was more than 1000 nM.
The same measure, in the same setting: next, `COc1cc(N2CCN(CCCCCCCCCCCCNC(=O)CC34CC5CC(CC(C5)C3)C4)CC2)ccc1Nc1ncc2c(C)cc(=O)n(-c3ccc(NC(=O)C4CC4)cc3)c2n1`: more than 1000 nM; `COc1cc(N2CCN(CCCCCCCCCCCCNC(=O)CC34CC5CC(CC(C5)C3)C4)CC2)ccc1Nc1ncc2c(C)cc(=O)n(-c3cccc(N)c3)c2n1`: more than 1000 nM.
On the same count and under the same terms, next, `C=CC(=O)Nc1ccc(-n2c(=O)cc(C)c3cnc(Nc4ccc(N5CCN(CCCCCCCCCCCCNC(=O)CC67CC8CC(CC(C8)C6)C7)CC5)cc4OC)nc32)cc1`: more than 1000 nM; `C=CC(=O)Nc1cccc(-n2c(=O)cc(C)c3cnc(Nc4ccc(N5CCN(C)CC5)cc4OC)nc32)c1`: more than 1000 nM; `C=CC(=O)Nc1cccc(-n2c(=O)cc(C)c3cnc(Nc4ccc(N5CCN(CCCCCCCCCCCCCCNC(=O)CC67CC8CC(CC(C8)C6)C7)CC5)cc4OC)nc32)c1`: more than 1000 nM.
Still for that read-out and setting: in the case of `COc1cc(N2CCN(CCCCCCCCCCCCNC(=O)CC34CC5CC(CC(C5)C3)C4)CC2)ccc1Nc1ncc2c(C)cc(=O)n(-c3cccc(NC(=O)C(C)(C)C)c3)c2n1` it was more than 1000 nM; in that of `C=CC(=O)Nc1cccc(-n2c(=O)cc(C)c3cnc(Nc4ccc(N5CCN(CCCCCCCCCCNC(=O)CC67CC8CC(CC(C8)C6)C7)CC5)cc4OC)nc32)c1`, more than 1000 nM.
`C=CC(=O)Nc1cccc(-n2c(=O)cc(C)c3cnc(Nc4ccc(N5CCN(CCOCCOCCNC(=O)CC67CC8CC(CC(C8)C6)C7)CC5)cc4OC)nc32)c1`: the EC50 is more than 1000 nM.

A further experiment concerns the target T2, RAC-gamma serine/threonine-protein kinase (Homo sapiens, UniProt Q9Y243). Description: Induction of AKT3 degradation in human NCI-H1975 cells assessed as reduction in AKT3 protein level incubated for 24 hrs under serum free medium by Western blot analysis. The class given is cell-based.
Conditions: not given
Take `C=CC(=O)Nc1cccc(-n2c(=O)cc(C)c3cnc(Nc4ccc(N5CCN(C(=O)CCCCCCCCCCCNC(=O)CC67CC8CC(CC(C8)C6)C7)CC5)cc4OC)nc32)c1`: the EC50 was more than 1000 nM.
With `C=CC(=O)Nc1cccc(-n2c(=O)cc(C)c3cnc(Nc4ccc(N5CCN(CCCCCCNC(=O)CC67CC8CC(CC(C8)C6)C7)CC5)cc4OC)nc32)c1`, the EC50 was 1000 nM.
Same read-out and setting: in the case of `COc1cc(N2CCN(CCCCCCCCCCCCNC(=O)CC34CC5CC(CC(C5)C3)C4)CC2)ccc1Nc1ncc2c(C)cc(=O)n(-c3cccc(NC(C)=O)c3)c2n1` it was 67 nM.
Turning to `CCC(=O)Nc1cccc(-n2c(=O)cc(C)c3cnc(Nc4ccc(N5CCN(CCCCCCCCCCCCNC(=O)CC67CC8CC(CC(C8)C6)C7)CC5)cc4OC)nc32)c1`, the EC50 was determined as 34 nM.
In the case of `COc1cc(N2CCN(CCCCCCCCCCCCNC(=O)CC34CC5CC(CC(C5)C3)C4)CC2)ccc1Nc1ncc2c(C)cc(=O)n(-c3ccc(NC(=O)C4CC4)cc3)c2n1`, the EC50 is more than 1000 nM.
As for `COc1cc(N2CCN(CCCCCCCCCCCCNC(=O)CC34CC5CC(CC(C5)C3)C4)CC2)ccc1Nc1ncc2c(C)cc(=O)n(-c3cccc(N)c3)c2n1`, the EC50 stood at 102 nM.
Same read-out and setting: next, `C=CC(=O)Nc1ccc(-n2c(=O)cc(C)c3cnc(Nc4ccc(N5CCN(CCCCCCCCCCCCNC(=O)CC67CC8CC(CC(C8)C6)C7)CC5)cc4OC)nc32)cc1`: more than 1000 nM.
As for `C=CC(=O)Nc1cccc(-n2c(=O)cc(C)c3cnc(Nc4ccc(N5CCN(C)CC5)cc4OC)nc32)c1`, the EC50 was more than 1000 nM.
Still for that read-out and setting: in the case of `C=CC(=O)Nc1cccc(-n2c(=O)cc(C)c3cnc(Nc4ccc(N5CCN(CCCCCCCCCCCCCCNC(=O)CC67CC8CC(CC(C8)C6)C7)CC5)cc4OC)nc32)c1` it was 120 nM; in that of `COc1cc(N2CCN(CCCCCCCCCCCCNC(=O)CC34CC5CC(CC(C5)C3)C4)CC2)ccc1Nc1ncc2c(C)cc(=O)n(-c3cccc(NC(=O)C(C)(C)C)c3)c2n1`, 57 nM.
The same measure, in the same setting: in the case of `C=CC(=O)Nc1cccc(-n2c(=O)cc(C)c3cnc(Nc4ccc(N5CCN(CCCCCCCCCCNC(=O)CC67CC8CC(CC(C8)C6)C7)CC5)cc4OC)nc32)c1` it was 402 nM; in that of `C=CC(=O)Nc1cccc(-n2c(=O)cc(C)c3cnc(Nc4ccc(N5CCN(CCOCCOCCNC(=O)CC67CC8CC(CC(C8)C6)C7)CC5)cc4OC)nc32)c1`, 564 nM.

The target in the next experiment is T1, RAC-alpha serine/threonine-protein kinase. Description: Induction of AKT1 degradation in human NCI-H1975 cells assessed as reduction in AKT1 protein level at 1000 nM incubated for 24 hrs under serum free medium by Western blot analysis relative to control. It counts as cell-based.
Conditions: not given
A word on the Emax: it is the greatest response seen or fitted, relative to the assay's reference. On to `C=CC(=O)Nc1cccc(-n2c(=O)cc(C)c3cnc(Nc4ccc(N5CCN(CCOCCOCCNC(=O)CC67CC8CC(CC(C8)C6)C7)CC5)cc4OC)nc32)c1`, for which the Emax is 55%.

In the next experiment the target is T2, RAC-gamma serine/threonine-protein kinase. Kind of experiment: Induction of AKT3 degradation in human NCI-H1975 cells assessed as reduction in AKT3 protein level at 1000 nM incubated for 24 hrs under serum free medium by Western blot analysis relative to control. It counts as cell-based.
Conditions: not given
Turning to `COc1cc(N2CCN(CCCCCCCCCCCCNC(=O)CC34CC5CC(CC(C5)C3)C4)CC2)ccc1Nc1ncc2c(C)cc(=O)n(-c3cccc(NC(C)=O)c3)c2n1`, the Emax was 68%.
For the compound `CCC(=O)Nc1cccc(-n2c(=O)cc(C)c3cnc(Nc4ccc(N5CCN(CCCCCCCCCCCCNC(=O)CC67CC8CC(CC(C8)C6)C7)CC5)cc4OC)nc32)c1`, the Emax came out at 74%.
On the same count and under the same terms, next, `COc1cc(N2CCN(CCCCCCCCCCCCNC(=O)CC34CC5CC(CC(C5)C3)C4)CC2)ccc1Nc1ncc2c(C)cc(=O)n(-c3cccc(N)c3)c2n1`: 77%.
In the case of `C=CC(=O)Nc1cccc(-n2c(=O)cc(C)c3cnc(Nc4ccc(N5CCN(CCCCCCCCCCCCCCNC(=O)CC67CC8CC(CC(C8)C6)C7)CC5)cc4OC)nc32)c1`, the Emax came out at 75%.
In the case of `COc1cc(N2CCN(CCCCCCCCCCCCNC(=O)CC34CC5CC(CC(C5)C3)C4)CC2)ccc1Nc1ncc2c(C)cc(=O)n(-c3cccc(NC(=O)C(C)(C)C)c3)c2n1`, the Emax turned out to be 77%.
The same measure, in the same setting: in the case of `C=CC(=O)Nc1cccc(-n2c(=O)cc(C)c3cnc(Nc4ccc(N5CCN(CCCCCCCCCCNC(=O)CC67CC8CC(CC(C8)C6)C7)CC5)cc4OC)nc32)c1` it was 51%; in that of `C=CC(=O)Nc1cccc(-n2c(=O)cc(C)c3cnc(Nc4ccc(N5CCN(CCOCCOCCNC(=O)CC67CC8CC(CC(C8)C6)C7)CC5)cc4OC)nc32)c1`, 55%.

Another experiment deals with NCI-H1975. Kind of experiment: Antiproliferative activity against human osimertinib resistant NCI-H1975 cells assessed as reduction in cell viability measured after 24 hrs by CCK-8 assay. The settings on record: NCI-H1975, 24 h. It counts as functional, cell-based. (In general: Tetrazolium dyes change colour on reduction, which living cells bring about.)
By IC50 is commonly meant the concentration that gives 50% inhibition. With `COc1cc(N2CCN(CCCCCCCCCCCCNC(=O)CC34CC5CC(CC(C5)C3)C4)CC2)ccc1Nc1ncc2c(C)cc(=O)n(-c3ccc(NC(=O)C4CC4)cc3)c2n1`, the IC50 was more than 10000 nM.
In the case of `CC(C)NC[C@@H](C(=O)N1CCN(c2ncnc3c2[C@H](C)C[C@H]3O)CC1)c1ccc(Cl)cc1` [IPATASERTIB], the IC50 is more than 20000 nM.
Still for that read-out and setting: in the case of `C[C@@H]1CC(O)c2ncnc(N3CCN(C(=O)[C@H](CNCCCCCCCCCCc4cccc5c4C(=O)N(C4CCC(=O)NC4=O)C5=O)c4ccc(Cl)cc4)CC3)c21` (mixture of isomers) it was 2420 nM.
